According to the supplement of paper PMC10307832:

Tests used:
Experiment in all cases: relative viability (nuclei count vs DMSO), 5 days (fraction); higher = more cells survive
[1] = compound: CC(=O)c1c(C)c2cnc(Nc3ccc(N4CCNCC4)cn3)nc2n(C2CCCC2)c1=O [Palbociclib] + CC(=O)Nc1cccc(-n2c(=O)n(C3CC3)c(=O)c3c(Nc4ccc(I)cc4F)n(C)c(=O)c(C)c32)c1 [Trametinib] (partner 0.02 µM)
Summary of the method: (§1)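 One day after seeding in 1536-well plates, lung cancer cell lines were dosed by pin tool. Dosing was either single-drug or a fixed anchor-drug dose plus five library-drug doses (not always all listed) in √10 steps. After 5 days, nuclei were stained in one fix-and-stain step and counted on 4× images, and relative viability is the nuclei count of treated wells over that of vehicle wells, given as the median of duplicate plates.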

[2] = compound: CC(=O)c1c(C)c2cnc(Nc3ccc(N4CCNCC4)cn3)nc2n(C2CCCC2)c1=O [Palbociclib] + COc1cccc2cc(-c3nc([C@H]4CC[C@H](C(=O)O)CC4)n4ncnc(N)c34)[nH]c12 [OSI-027] (partner 0.5 µM)
Summary of the method: as §1

[3] = compound: CC(=O)c1c(C)c2cnc(Nc3ccc(N4CCNCC4)cn3)nc2n(C2CCCC2)c1=O [Palbociclib] + NC(=O)Nc1cc(-c2cccc(F)c2)sc1C(=O)N[C@H]1CCCNC1 [AZD7762] (partner 0.2 µM)
Summary of the method: as §1

[4] = compound: CC(=O)c1c(C)c2cnc(Nc3ccc(N4CCNCC4)cn3)nc2n(C2CCCC2)c1=O [Palbociclib] + CCNC(=O)c1noc(-c2cc(C(C)C)c(O)cc2O)c1-c1ccc(CN2CCOCC2)cc1 [Luminespib] (partner 0.01 µM)
Summary of the method: as §1

| Cell Line | relative viability ([1]; first compound 0.01 µM) | relative viability ([1]; first compound 0.03162 µM) | relative viability ([1]; first compound 0.1 µM) | relative viability ([1]; first compound 0.3162 µM) | relative viability ([1]; first compound 1 µM) | relative viability ([2]; first compound 0.01 µM) | relative viability ([2]; first compound 0.03162 µM) | relative viability ([2]; first compound 0.1 µM) | relative viability ([2]; first compound 0.3162 µM) | relative viability ([2]; first compound 1 µM) | relative viability ([3]; first compound 0.01 µM) | relative viability ([3]; first compound 0.03162 µM) | relative viability ([3]; first compound 0.1 µM) | relative viability ([3]; first compound 0.3162 µM) | relative viability ([3]; first compound 1 µM) | relative viability ([4]; first compound 0.01 µM) | relative viability ([4]; first compound 0.03162 µM) | relative viability ([4]; first compound 0.1 µM) | relative viability ([4]; first compound 0.3162 µM) | relative viability ([4]; first compound 1 µM) |
| --- | --- | --- | --- | --- | --- | --- | --- | --- | --- | --- | --- | --- | --- | --- | --- | --- | --- | --- | --- | --- |
| HCC-78 | 0.869 | 0.62 | 0.524 | 0.531 | 0.374 | 0.424 | 0.382 | 0.315 | 0.319 | 0.254 | 0.731 | 0.623 | 0.67 | 0.525 | 0.685 | – | – | – | – | – |
| HCC-366 | 0.466 | – | 0.41 | 0.298 | 0.24 | 0.916 | – | 0.722 | 0.731 | 0.482 | 0.198 | – | 0.43 | 0.232 | 0.11 | – | – | – | – | – |
| HCC-827 | 0.545 | 0.52 | 0.449 | 0.476 | 0.399 | 0.809 | 0.52 | 0.707 | 0.563 | 0.479 | 0.245 | 0.211 | 0.202 | 0.203 | 0.168 | 0.398 | 0.539 | 0.582 | 0.609 | 0.532 |
| HOP-62 | 0.431 | – | 0.36 | 0.382 | 0.288 | 0.793 | – | 0.697 | 0.624 | 0.446 | 0.334 | – | 0.389 | 0.501 | 0.355 | 0.905 | 0.844 | 0.91 | 0.716 | 0.675 |
| LC-2-ad | 0.966 | 0.884 | 0.889 | 0.804 | 0.666 | 0.746 | – | 0.604 | 0.625 | 0.474 | 0.886 | 0.692 | 0.734 | 0.702 | 0.513 | 0.944 | – | 0.856 | 0.8 | 0.535 |
| LCLC-97TM1 | 0.209 | – | 0.208 | 0.182 | 0.184 | 0.586 | 0.353 | 0.349 | 0.219 | 0.221 | 0.391 | – | 0.252 | 0.199 | 0.152 | 0.666 | 0.702 | 0.684 | 0.486 | 0.281 |
| NCI-H520 | 0.84 | 0.574 | 0.561 | 0.541 | 0.245 | 0.21 | 0.228 | 0.203 | 0.236 | 0.212 | – | – | – | – | – | 0.203 | 0.214 | 0.225 | 0.216 | 0.222 |
| NCI-H661 | 0.536 | 0.5 | 0.423 | 0.477 | 0.336 | 0.77 | 0.552 | 0.464 | 0.354 | 0.313 | – | – | – | – | – | 0.868 | 0.789 | 0.597 | 0.523 | 0.416 |
